# Key:
# rat nNOS = rat nNOS (Rattus norvegicus, UniProt P29476); assay: NOS hemoglobin capture assay, Ki from IC50; type: biochemical; settings: 10 μM L-arginine, calculated from IC50, mean ± SD of 2-3 experiments
# ferrous nNOS heme domain = ferrous nNOS heme domain (Rattus norvegicus, UniProt P29476); assay: Ferrous difference spectrometry; type: binding; settings: type of difference spectrum toward ferrous (dithionite-reduced) nNOS heme domain
# ferric nNOS heme domain = ferric nNOS heme domain (Rattus norvegicus, UniProt P29476); assay: Ferric difference spectrometry; type: binding; settings: type of difference spectrum toward ferric nNOS heme domain
# ferric nNOS heme domain, sequence (P29476 297-718 limits assumed): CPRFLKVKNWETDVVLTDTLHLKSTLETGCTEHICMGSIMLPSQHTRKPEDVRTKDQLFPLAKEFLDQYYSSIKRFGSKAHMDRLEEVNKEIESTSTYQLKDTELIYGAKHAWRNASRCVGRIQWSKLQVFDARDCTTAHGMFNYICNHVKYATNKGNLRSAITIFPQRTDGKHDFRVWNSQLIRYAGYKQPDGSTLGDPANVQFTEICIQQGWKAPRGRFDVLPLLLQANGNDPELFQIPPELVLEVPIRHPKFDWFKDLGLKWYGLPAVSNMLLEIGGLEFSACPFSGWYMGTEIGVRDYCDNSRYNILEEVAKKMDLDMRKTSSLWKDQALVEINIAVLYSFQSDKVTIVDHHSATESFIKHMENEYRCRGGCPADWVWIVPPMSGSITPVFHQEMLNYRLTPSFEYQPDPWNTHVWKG
# ferrous nNOS heme domain, sequence (P29476 297-718 limits assumed): as above
# rat nNOS, sequence (P29476 whole entry, the tested form may be a part): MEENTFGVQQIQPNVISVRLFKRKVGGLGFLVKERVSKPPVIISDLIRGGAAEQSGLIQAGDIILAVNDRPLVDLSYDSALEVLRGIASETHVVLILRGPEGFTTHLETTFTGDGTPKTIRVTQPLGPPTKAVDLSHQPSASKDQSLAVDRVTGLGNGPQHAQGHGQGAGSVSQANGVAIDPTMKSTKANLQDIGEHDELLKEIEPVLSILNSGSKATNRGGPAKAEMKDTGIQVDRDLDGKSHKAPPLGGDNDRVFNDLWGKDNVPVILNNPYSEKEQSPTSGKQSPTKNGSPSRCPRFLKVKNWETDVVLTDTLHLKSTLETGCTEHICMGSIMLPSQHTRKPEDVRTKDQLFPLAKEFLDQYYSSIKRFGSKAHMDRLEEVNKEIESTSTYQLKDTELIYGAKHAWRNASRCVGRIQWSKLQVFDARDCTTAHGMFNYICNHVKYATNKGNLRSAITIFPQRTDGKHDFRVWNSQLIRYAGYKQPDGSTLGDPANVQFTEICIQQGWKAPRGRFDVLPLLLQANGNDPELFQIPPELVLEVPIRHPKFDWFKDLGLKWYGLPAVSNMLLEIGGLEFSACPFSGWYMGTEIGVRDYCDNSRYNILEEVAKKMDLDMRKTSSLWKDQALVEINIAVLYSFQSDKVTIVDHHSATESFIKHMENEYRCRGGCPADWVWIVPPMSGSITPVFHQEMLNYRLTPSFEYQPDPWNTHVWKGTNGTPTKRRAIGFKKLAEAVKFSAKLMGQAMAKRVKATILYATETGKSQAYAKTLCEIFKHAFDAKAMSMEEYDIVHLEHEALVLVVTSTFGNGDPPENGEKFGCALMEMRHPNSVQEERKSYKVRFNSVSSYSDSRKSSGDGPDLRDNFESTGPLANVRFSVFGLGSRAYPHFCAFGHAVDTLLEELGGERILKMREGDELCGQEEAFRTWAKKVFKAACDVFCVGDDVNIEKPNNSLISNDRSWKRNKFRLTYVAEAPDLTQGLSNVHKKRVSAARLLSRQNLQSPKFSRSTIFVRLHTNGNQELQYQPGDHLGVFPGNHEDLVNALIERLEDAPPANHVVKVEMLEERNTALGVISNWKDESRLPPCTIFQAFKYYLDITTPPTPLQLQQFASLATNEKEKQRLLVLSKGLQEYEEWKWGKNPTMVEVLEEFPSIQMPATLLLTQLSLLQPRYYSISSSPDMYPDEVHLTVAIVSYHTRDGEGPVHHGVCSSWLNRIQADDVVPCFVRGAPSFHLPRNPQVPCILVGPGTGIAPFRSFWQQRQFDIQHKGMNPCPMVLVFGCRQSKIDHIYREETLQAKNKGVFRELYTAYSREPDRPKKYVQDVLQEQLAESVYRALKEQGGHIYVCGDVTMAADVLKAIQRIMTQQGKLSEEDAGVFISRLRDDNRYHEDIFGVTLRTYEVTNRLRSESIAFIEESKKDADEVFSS
SMILES,Ki (rat nNOS) [µM],Fe^2+ type (ferrous nNOS heme domain),Fe^3+ type (ferric nNOS heme domain)
c1c[nH]cn1 [Imidazole],29.7 ± 0.8,I,
NC(=NCCC[C@H](N)C(=O)O)N[N+](=O)[O-] [L-Nitroarginine],,I,I
